The source of these data is patent US7064124B2, “NF-κB inhibitor containing substituted benzoic acid derivative as active ingredient” (Daiichi Suntory Pharma Co., Ltd., priority 2001, dated 2006).

What is called melting point is the temperature of the solid-liquid transition.

In turn, `COC1=C(OC)C(=O)C(Cc2ccc(C(=O)Nc3ccc(OC)nc3)c(O)c2)=C(C)C1=O` [Example 135, N-(6-Methoxypyridin-3-yl)-4-(5,6-dimethoxy-3-methyl-1,4-benzoquinon-2-yl)methyl-2-hydroxybenzamide] displayed a melting point of 194.3 to 196.5 °C.

In the case of `COC1=C(OC)C(=O)C(Cc2ccc(OCc3cccnc3)c(C(=O)NC3CC3)c2)=C(C)C1=O` [Example 170, N-Cyclopropyl-5-(5,6-dimethoxy-3-methyl-1,4-benzoquinon-2-yl)methyl-2-(3-pyridylmethyloxy)benzamide], the melting point is 87 to 89.5 °C.

For the molecule `COC1=C(OC)C(=O)C(Cc2ccc(OC(C)=O)c(C(=O)Nc3ccnc(OC)c3)c2)=C(C)C1=O` [Example 230, N-(2-Methoxypyridin-4-yl)-5-(5,6-dimethoxy-3-methyl-1,4-benzoquinon-2-yl)methyl-2-acetoxybenzamide], the melting point lay in the range of 138 to 140.5 °C.

`COC1=C(OC)C(=O)C(Cc2ccc(C(=O)Nc3cccnc3)c(O)c2)=C(C)C1=O` [Example 139, N-(Pyridin-3-yl)-4-(5,6-dimethoxy-3-methyl-1,4-benzoquinon-2-yl)methyl-2-hydroxybenzamide]: the melting point lay within 138.1 to 139.7 °C.

As for `COC1=C(OC)C(=O)C(Cc2ccc(C(=O)Nc3cccnc3Cl)c(O)c2)=C(C)C1=O` [Example 133], the melting point lay in the range of 200.2 to 202.6 °C.

For the molecule `COC1=C(OC)C(=O)C(Cc2ccc(O)c(C(=O)Nc3ccc(C(=O)O)cn3)c2)=C(C)C1=O` [Example 198, N-(5-Hydroxycarbonylpyridin-2-yl)-5-(5,6-dimethoxy-3-methyl-1,4-benzoquinon-2-yl)methyl-2-hydroxybenzamide], the melting point fell in the range of 238 to 241 °C.

`COC1=C(OC)C(=O)C(Cc2ccc(OC(C)=O)c(C(=O)Nc3ccccc3C(F)(F)F)c2)=C(C)C1=O` [Example 145, N-[5-(5,6-Dimethoxy-3-methyl-1,4-benzoquinon-2-yl)methyl-2-acetoxybenzoyl]-2-trifluoromethylaniline] yielded a melting point of 57.5 to 60 °C.

Molecule `COC1=C(OC)C(=O)C(Cc2ccc(OC(C)=O)c(C(=O)Nc3cccnc3OC)c2)=C(C)C1=O` [Example 215, N-(2-Methoxypyridin-3-yl)-5-(5,6-dimethoxy-3-methyl-1,4-benzoquinon-2-yl)methyl-2-acetoxybenzamide] had a melting point of 111 to 112 °C.

Regarding `COC1=C(OC)C(=O)C(Cc2ccc(OCc3cccnc3)c(C(=O)Nc3ccc(C(F)(F)F)cc3)c2)=C(C)C1=O` [Example 172, N-[5-(5,6-Dimethoxy-3-methyl-1,4-benzoquinon-2-yl)methyl-2-(3-pyridylmethyloxy)benzoyl]-4-trifluoromethylaniline], the melting point lay within 173 to 176 °C.

The molecule `COC1=C(OC)C(=O)C(Cc2ccc(O)c(C(=O)Nc3cccc([N+](=O)[O-])c3)c2)=C(C)C1=O` [Example 144, N-[5-(5,6-Dimethoxy-3-methyl-1,4-benzoquinon-2-yl)methyl-2-hydroxybenzoyl]-3-nitroaniline] registered a melting point of 153 to 154 °C.

Regarding `COC1=C(OC)C(=O)C(Cc2ccc(C(=O)Nc3ccncc3)c(O)c2)=C(C)C1=O` [Example 140, N-(Pyridin-4-yl)-4-(5,6-dimethoxy-3-methyl-1,4-benzoquinon-2-yl)methyl-2-hydroxybenzamide], the melting point lay within 181.4 to 183.3 °C.

Regarding `CCOC(=O)c1ccc(NC(=O)c2cc(CC3=C(C)C(=O)C(OC)=C(OC)C3=O)ccc2OCc2cccnc2)cc1` [Example 167, Ethyl N-[5-(5,6-dimethoxy-3-methyl-1,4-benzoquinon-2-yl)methyl-2-(3-pyridylmethyloxy)benzoyl]-4-aminobenzoate], the melting point is 83 to 85.5 °C.

The molecule `COC1=C(OC)C(=O)C(Cc2ccc(O)c(C(=O)Nc3ccc(-c4ccn[nH]4)cc3)c2)=C(C)C1=O` [Example 211, N-[5-(5,6-Dimethoxy-3-methyl-1,4-benzoquinon-2-yl)methyl-2-hydroxybenzoyl]-4-(1H-pyrazol-3-yl)aniline] had a melting point of 182 to 185.5 °C.

In turn, `COC1=C(OC)C(=O)C(Cc2ccc(O)c(C(=O)Nc3ccc(OC)nc3OC)c2)=C(C)C1=O` [Example 183, N-(2,6-Dimethoxypyridin-3-yl)-5-(5,6-dimethoxy-3-methyl-1,4-benzoquinon-2-yl)methyl-2-hydroxybenzamide] registered a melting point of 119 to 121.5 °C.

Turning to `CC1=C(C)C(=O)C(Cc2ccc(O)c(C(=O)Nc3ccncc3)c2)=C(C)C1=O` [Example 238, N-(Pyridin-4-yl)-5-(3,5,6-trimethyl-1,4-benzoquinon-2-yl)methyl-2-hydroxybenzamide], the melting point is 245 to 247 °C.

With `COC1=C(OC)C(=O)C(Cc2ccc(O)c(C(=O)Nc3ccc(-n4ccnc4)cc3)c2)=C(C)C1=O` [Example 209, N-[5-(5,6-Dimethoxy-3-methyl-1,4-benzoquinon-2-yl)methyl-2-hydroxybenzoyl]-4-(imidazol-1-yl)aniline], the melting point is 119 to 121.5 °C.

In turn, `COC1=C(OC)C(=O)C(Cc2ccc(OC(C)=O)c(C(=O)Nc3ncccc3C(=O)O)c2)=C(C)C1=O` [Example 194, N-(3-Hydroxycarbonylpyridin-2-yl)-5-(5,6-dimethoxy-3-methyl-1,4-benzoquinon-2-yl)methyl-2-acetoxybenzamide] displayed a melting point of 148 to 151 °C.

The molecule `COC1=C(OC)C(=O)C(Cc2ccc(OC(C)=O)c(C(=O)Nc3ccc(C(=O)O)cn3)c2)=C(C)C1=O` [Example 197, N-(5-Hydroxycarbonylpyridin-2-yl)-5-(5,6-dimethoxy-3-methyl-1,4-benzoquinon-2-yl)methyl-2-acetoxybenzamide] registered a melting point of 123 to 125 °C.

Molecule `COC1=C(OC)C(=O)C(Cc2ccc(O)c(C(=O)Nc3ncccc3C(=O)O)c2)=C(C)C1=O` [Example 195, N-(3-Hydroxycarbonylpyridin-2-yl)-5-(5,6-dimethoxy-3-methyl-1,4-benzoquinon-2-yl)methyl-2-hydroxybenzamide] registered a melting point of 134 to 136.5 °C.

Consider `COC1=C(OC)C(=O)C(Cc2ccc(OCc3cccnc3)c(C(=O)Nc3cccnc3)c2)=C(C)C1=O` [Example 169, N-(Pyridin-3-yl)-5-(5,6-dimethoxy-3-methyl-1,4-benzoquinon-2-yl)methyl-2-(3-pyridylmethyloxy)benzamide], for which the melting point was in the range of 135 to 137 °C.

`COC1=C(OC)C(=O)C(Cc2ccc(C(=O)Nc3cccnc3Cl)c(OC(C)=O)c2)=C(C)C1=O` [Example 132, N-(2-Chloropyridin-3-yl)-4-(5,6-dimethoxy-3-methyl-1,4-benzoquinon-2-yl)methyl-2-acetoxybenzamide] registered a melting point of 113.5 to 115.1 °C.

In turn, `COC1=C(OC)C(=O)C(Cc2ccc(O)c(C(=O)Nc3ccnc(OC)c3)c2)=C(C)C1=O` [Example 231, N-(2-Methoxypyridin-4-yl)-5-(5,6-dimethoxy-3-methyl-1,4-benzoquinon-2-yl)methyl-2-hydroxybenzamide] gave a melting point of 218 to 220.5 °C.

Consider `COC1=C(OC)C(=O)C(Cc2ccc(O)c(C(=O)NC3CCCCC3)c2)=C(C)C1=O` [Example 162, N-Cyclohexyl-5-(5,6-dimethoxy-3-methyl-1,4-benzoquinon-2-yl)methyl-2-hydroxybenzamide], for which the melting point was in the range of 107 to 109 °C.

In turn, `COC1=C(OC)C(=O)C(Cc2ccc(OC(C)=O)c(C(=O)Nc3cccc(C(F)(F)F)c3)c2)=C(C)C1=O` [Example 151, N-[5-(5,6-Dimethoxy-3-methyl-1,4-benzoquinon-2-yl)methyl-2-acetoxybenzoyl]-3-trifluoromethylaniline] showed a melting point of 98 to 100 °C.

For `COC1=C(OC)C(=O)C(Cc2cccc(C(=O)Nc3ccc(N4CCOCC4)cc3)c2OC(C)=O)=C(C)C1=O` [Example 178, N-[3-(5,6-Dimethoxy-3-methyl-1,4-benzoquinon-2-yl)methyl-2-acetoxybenzoyl]-4-morpholinoaniline], the melting point is 168 to 171 °C.

For the molecule `COC1=C(OC)C(=O)C(Cc2ccc(C(=O)Nc3ccc(Cl)nc3)c(O)c2)=C(C)C1=O` [Example 131, N-(6-Chloropyridin-3-yl)-4-(5,6-dimethoxy-3-methyl-1,4-benzoquinon-2-yl)methyl-2-hydroxybenzamide], the melting point was in the range of 200.2 to 201.9 °C.

Molecule `COC1=C(OC)C(=O)C(Cc2ccc(C(=O)Nc3cccnc3)c(OC(C)=O)c2)=C(C)C1=O` [Example 138, N-(Pyridin-3-yl)-4-(5,6-dimethoxy-3-methyl-1,4-benzoquinon-2-yl)methyl-2-acetoxybenzamide] yielded a melting point of 158.2 to 160 °C.

In turn, `COC1=C(OC)C(=O)C(Cc2ccc(OC(C)=O)c(C(=O)Nc3ccc(C(=O)O)cc3)c2)=C(C)C1=O` [Example 189, N-[5-(5,6-Dimethoxy-3-methyl-1,4-benzoquinon-2-yl)methyl-2-acetoxybenzoyl]-4-aminobenzoic acid] gave a melting point of 199 to 201.5 °C.

`COC1=C(OC)C(=O)C(Cc2ccc(C(=O)Nc3ccc(S(=O)(=O)C(F)(F)F)cc3)c(O)c2)=C(C)C1=O` [Example 137, N-[4-(5,6-Dimethoxy-3-methyl-1,4-benzoquinon-2-yl)methyl-2-hydroxybenzoyl]-4-(trifluoromethylsulfonyl)aniline] returned a melting point of 186.9 to 187.5 °C.

Regarding `COC1=C(OC)C(=O)C(Cc2ccc(O)c(C(=O)Nc3ccccn3)c2)=C(C)C1=O` [Example 156, N-(Pyridin-2-yl)-5-(5,6-dimethoxy-3-methyl-1,4-benzoquinon-2-yl)methyl-2-hydroxybenzamide], the melting point lay within 180 to 183 °C.

With `COC1=C(OC)C(=O)C(Cc2ccc(O)c(C(=O)Nc3ccc(C(=O)O)cc3)c2)=C(C)C1=O` [Example 190, N-[5-(5,6-Dimethoxy-3-methyl-1,4-benzoquinon-2-yl)methyl-2-hydroxybenzoyl]-4-aminobenzoic acid], the melting point lay within 257 to 260 °C.

Regarding `COC1=C(OC)C(=O)C(Cc2ccc(OC(C)=O)c(C(=O)Nc3ccc(F)cc3)c2)=C(C)C1=O` [Example 141, N-[5-(5,6-Dimethoxy-3-methyl-1,4-benzoquinon-2-yl)methyl-2-acetoxybenzoyl]-4-fluoroaniline], the melting point fell in the range of 128.5 to 130.5 °C.

Regarding `CC(=O)Oc1ccc(CC2=C(C)C(=O)C(C)=C(C)C2=O)cc1C(=O)O` [Example 233, 5-(3,5,6-Trimethyl-1,4-benzoquinon-2-yl)methyl-2-acetoxybenzoic acid], the melting point was 157 to 159.5 °C.
